Data on three molecules can be found in patent US9593305B2, “Differentiation of pluripotent stem cells” (Janssen Biotech, Inc., priority 2008, dated 2017).

The test system of the assay is H1 human embryonic stem cells. The experiment in a line: Step-wise differentiation, RT-PCR of differentiation markers (Example 12, Table 13). The settings on record: GDF-8 200 ng/ml with Wnt3a or 2.5 μM compound in step 1, versus activin A/Wnt3a. Format: cell-based. How it is done: Stock cultures of human embryonic stem cells (H1 human embryonic stem cell line) were maintained in an undifferentiated, pluripotent state on reduced growth factor […]™-coated dishes in MEF conditioned medium with passage on average every four days. Passage was performed by exposing cell cultures to a solution of 1 mg/ml dispase (Invitrogen; Cat #17105-041) for 5 to 7 minutes at 37° C. followed by rinsing the monolayer with MEF conditioned culture medium and gentle scraping to recover cell clusters. Clusters were centrifuged at low speed to collect a cell pellet and remove residual dispase. Cell clusters were split at a 1:3 or 1:4 ratio for routine maintenance culture or a 1:1 ratio for immediate assay. All human ES cell lines were maintained at passage numbers less than 50 and routinely evaluated for normal karyotype and absence of mycoplasma.
Cell clusters were evenly resuspended in MEF conditioned medium supplemented with 8 ng/ml bFGF and seeded onto reduced growth factor […]™-coated 24-well, black wall culture plates (Arctic White; Cat #AWLS-303012) in volumes of 0.5 ml/well. Daily feeding was conducted by aspirating spent culture medium from each well and replacing with an equal volume of fresh medium. Plates were maintained at 37° C., 5% CO2 throughout the duration of assay.
The assay was initiated by aspirating the culture medium from each well and adding back an aliquot (0.5 ml) of test medium. Test conditions for the first step of differentiation were conducted over a three-day period, feeding daily by aspirating and replacing the medium from each well with fresh test medium. On the first day of assay, 100 ng/ml activin A (PeproTech; Cat #120-14) or 200 ng/ml GDF-8 (R&D Systems, Cat #788-G8) was added to respective assay wells where each growth factor was diluted into RPMI-1640 medium (Invitrogen; Cat #22400) with 1% Albumin Bovine Fraction V, Fatty Acid Free (FAF BSA) (MP Biomedicals, Inc; Cat 152401), 1% Probumin (Millipore; Cat #81-068-3) and 20 ng/ml Wnt3a (R&D Systems; Cat #1324-WN/CF). […]

Take `O=C1CCN2CCN(CC2)Cc2cc(Cl)cc(c2)Nc2ncnc(n2)-c2cncc(c2)CCCN1` [Compound 34, 5-Chloro-1,8,10,12,16,22,26,32-octaazapentacyclo[24.2.2.1˜3.7˜0.1˜9,13˜0.1˜14.18˜]tritriaconta-3(33), 4,6,9(32), 10,12,14(31), 15,17-nonaen-23-one]: the “expression levels of markers associated with endodermal and endocrine differentiation (PCR)” value is “similar, or in some instances, improved expression levels”.
Consider `Cc1c[nH]c(-c2cnc(NCCNc3ccc(C#N)cn3)nc2-c2ccc(Cl)cc2Cl)n1` [Compound 56, 6-[(2-{[4-(2,4-Dichlorophenyl)-5-(4-methyl-1H-imidazol-2-yl)pyrimidin-2-yl]amino}ethyl)amino]pyridine-3-carbonitrile], for which the “expression levels of markers associated with endodermal and endocrine differentiation (PCR)” value is reported as “similar, or in some instances, improved expression levels”.
Regarding “GDF-8: growth factor GDF-8, also known as myostatin, member of the TGF-β family”, the “expression levels of markers associated with endodermal and endocrine differentiation (PCR)” value is “similar, or in some instances, improved expression levels”.
